Laboratory results taken from ChEMBL document CHEMBL5584296, “Discovery of Novel Pyrimidine-Based Derivatives as Nav1.2 Inhibitors with Efficacy in Mouse Models of Epilepsy” (J Med Chem, 2024).

Assays:
[1] = Ratio of drug concentration in male ICR mouse brain to plasma at 10 mg/kg, ip measured after 0.25 hrs by LC-MS/MS analysis; type: ADME, organism-based; conditions: read-out: BPR
[2] = Drug concentration in male ICR mouse plasma at 20 mg/kg, po measured after 0.5 hrs by LC-MS/MS analysis; type: ADME, organism-based
[3] = Ratio of drug concentration in male ICR mouse brain to plasma at 20 mg/kg, po measured after 0.25 hrs by LC-MS/MS analysis; type: ADME, organism-based; conditions: read-out: BPR
[4] = Neurotoxicity in male ICR mouse assessed as motor impairment at 25 mg/kg, ip administered for 30 mins by rotarod test relative to control; type: toxicity, organism-based; conditions: in vivo, 0.5 h
[5] = target: T1, Sodium channel protein type 2 subunit alpha (Homo sapiens, UniProt Q99250); assay: Inhibition of human Nav1.2 expressed in HEK293 cells assessed as effect on steady state inactivation by measuring half activation potential at 10 uM (reference value: -65 mV); type: cell-based
Target sequence in this assay (Q99250 whole entry, looked up): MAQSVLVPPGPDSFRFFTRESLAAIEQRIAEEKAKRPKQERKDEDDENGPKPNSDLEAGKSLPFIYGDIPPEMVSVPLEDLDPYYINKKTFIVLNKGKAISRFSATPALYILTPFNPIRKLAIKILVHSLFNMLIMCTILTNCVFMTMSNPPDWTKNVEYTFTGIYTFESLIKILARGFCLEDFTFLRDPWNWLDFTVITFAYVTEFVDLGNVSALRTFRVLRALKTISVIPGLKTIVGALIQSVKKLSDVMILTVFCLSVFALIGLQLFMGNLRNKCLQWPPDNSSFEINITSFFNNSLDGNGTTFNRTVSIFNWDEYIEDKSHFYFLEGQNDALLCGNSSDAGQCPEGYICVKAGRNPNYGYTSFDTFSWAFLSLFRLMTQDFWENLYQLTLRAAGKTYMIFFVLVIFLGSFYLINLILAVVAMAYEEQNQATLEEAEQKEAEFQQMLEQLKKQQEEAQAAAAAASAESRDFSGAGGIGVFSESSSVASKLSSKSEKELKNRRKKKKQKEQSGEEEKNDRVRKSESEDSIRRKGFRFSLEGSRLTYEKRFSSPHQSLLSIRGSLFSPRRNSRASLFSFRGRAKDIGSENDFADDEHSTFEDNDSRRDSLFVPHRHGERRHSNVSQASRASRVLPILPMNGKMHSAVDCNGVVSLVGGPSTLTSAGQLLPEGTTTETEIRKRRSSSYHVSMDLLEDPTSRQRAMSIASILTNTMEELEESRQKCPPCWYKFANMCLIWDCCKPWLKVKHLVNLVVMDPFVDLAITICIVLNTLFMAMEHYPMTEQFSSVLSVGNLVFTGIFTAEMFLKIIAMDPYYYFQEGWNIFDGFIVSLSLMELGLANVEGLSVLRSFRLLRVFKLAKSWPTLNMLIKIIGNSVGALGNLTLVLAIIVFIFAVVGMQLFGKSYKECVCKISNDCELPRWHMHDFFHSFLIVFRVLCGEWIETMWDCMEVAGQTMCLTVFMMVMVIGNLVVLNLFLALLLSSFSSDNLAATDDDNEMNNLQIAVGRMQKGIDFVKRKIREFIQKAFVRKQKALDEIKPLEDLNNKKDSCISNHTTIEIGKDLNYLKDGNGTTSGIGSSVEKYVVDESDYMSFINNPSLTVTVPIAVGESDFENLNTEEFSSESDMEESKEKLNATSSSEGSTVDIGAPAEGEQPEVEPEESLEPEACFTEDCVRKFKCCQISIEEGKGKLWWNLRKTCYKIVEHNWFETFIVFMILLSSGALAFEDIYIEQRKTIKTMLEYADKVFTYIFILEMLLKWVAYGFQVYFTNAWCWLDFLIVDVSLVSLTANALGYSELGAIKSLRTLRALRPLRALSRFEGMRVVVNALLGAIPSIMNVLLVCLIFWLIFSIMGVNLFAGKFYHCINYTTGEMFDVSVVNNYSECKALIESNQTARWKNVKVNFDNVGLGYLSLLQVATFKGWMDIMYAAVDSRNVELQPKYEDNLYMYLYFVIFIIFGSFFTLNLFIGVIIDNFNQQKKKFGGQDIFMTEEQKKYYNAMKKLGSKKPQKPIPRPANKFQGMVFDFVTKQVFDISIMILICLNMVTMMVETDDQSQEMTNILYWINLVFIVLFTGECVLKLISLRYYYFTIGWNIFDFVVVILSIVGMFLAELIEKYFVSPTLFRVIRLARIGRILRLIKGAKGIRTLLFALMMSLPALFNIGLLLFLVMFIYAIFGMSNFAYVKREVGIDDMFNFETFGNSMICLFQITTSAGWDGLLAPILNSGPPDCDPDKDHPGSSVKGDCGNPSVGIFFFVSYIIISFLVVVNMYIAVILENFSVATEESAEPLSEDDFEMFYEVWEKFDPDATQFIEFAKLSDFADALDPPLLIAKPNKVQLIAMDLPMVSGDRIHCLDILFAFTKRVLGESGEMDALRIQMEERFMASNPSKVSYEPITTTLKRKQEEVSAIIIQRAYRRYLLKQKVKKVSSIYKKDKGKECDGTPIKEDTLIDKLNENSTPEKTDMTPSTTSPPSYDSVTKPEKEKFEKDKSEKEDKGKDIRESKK

[6] = Ratio of drug concentration in male ICR mouse brain to plasma at 10 mg/kg, ip measured after 0.5 hrs by LC-MS/MS analysis; type: ADME, organism-based; conditions: read-out: BPR
[7] = Cmax in male ICR mouse at 1 mg/kg, iv measured after 24 hrs by LC-MS/MS analysis; type: ADME, organism-based; conditions: in vivo
[8] = Drug concentration in male ICR mouse brain at 20 mg/kg, po measured after 0.5 hrs by LC-MS/MS analysis; type: ADME, organism-based; conditions: read-out: Ct
[9] = Drug concentration in male ICR mouse brain at 20 mg/kg, po measured after 0.25 hrs by LC-MS/MS analysis; type: ADME, organism-based; conditions: read-out: Ct
[10] = AUC (0 to infinity) in male ICR mouse at 20 mg/kg, po measured after 24 hrs by LC-MS/MS analysis; type: ADME, organism-based; conditions: in vivo
[11] = Drug concentration in male ICR mouse brain at 10 mg/kg, ip measured after 0.5 hrs by LC-MS/MS analysis; type: ADME, organism-based; conditions: read-out: Ct
[12] = Half-life in male ICR mouse at 1 mg/kg, iv measured after 24 hrs by LC-MS/MS analysis; type: ADME, organism-based; conditions: in vivo
[13] = target: T2, Sodium channel protein type 5 subunit alpha (Homo sapiens, UniProt Q14524); assay: Inhibition of human Nav1.5 expressed in CHL cells assessed as test to control ratio at 1 uM by whole cell voltage clamp electrophysiological analysis; type: cell-based
[14] = target: T2, Sodium channel protein type 5 subunit alpha; assay: Inhibition of human Nav1.5 expressed in CHL cells assessed as test to control ratio at 0.1 uM by whole cell voltage clamp electrophysiological analysis; type: cell-based
[15] = target: Sodium channel protein type 1 subunit alpha (Homo sapiens) (UniProt P35498); assay: Inhibition of human Nav1.1 expressed in HEK293 cells assessed as test to control ratio at 1 uM by whole cell voltage clamp electrophysiological analysis; type: cell-based
[16] = target: T1, Sodium channel protein type 2 subunit alpha; assay: Inhibition of human Nav1.2 expressed in HEK293 cells at -40 mv holding potential measured after 5 mins by whole cell voltage clamp electrophysiological analysis; type: cell-based
Target sequence in this assay (Q99250 whole entry): as the sequence (Q99250 whole entry, looked up) above

[17] = Tmax in male ICR mouse at 1 mg/kg, iv measured after 24 hrs by LC-MS/MS analysis; type: ADME, organism-based; conditions: in vivo

T2 sequence (Q14524 whole entry): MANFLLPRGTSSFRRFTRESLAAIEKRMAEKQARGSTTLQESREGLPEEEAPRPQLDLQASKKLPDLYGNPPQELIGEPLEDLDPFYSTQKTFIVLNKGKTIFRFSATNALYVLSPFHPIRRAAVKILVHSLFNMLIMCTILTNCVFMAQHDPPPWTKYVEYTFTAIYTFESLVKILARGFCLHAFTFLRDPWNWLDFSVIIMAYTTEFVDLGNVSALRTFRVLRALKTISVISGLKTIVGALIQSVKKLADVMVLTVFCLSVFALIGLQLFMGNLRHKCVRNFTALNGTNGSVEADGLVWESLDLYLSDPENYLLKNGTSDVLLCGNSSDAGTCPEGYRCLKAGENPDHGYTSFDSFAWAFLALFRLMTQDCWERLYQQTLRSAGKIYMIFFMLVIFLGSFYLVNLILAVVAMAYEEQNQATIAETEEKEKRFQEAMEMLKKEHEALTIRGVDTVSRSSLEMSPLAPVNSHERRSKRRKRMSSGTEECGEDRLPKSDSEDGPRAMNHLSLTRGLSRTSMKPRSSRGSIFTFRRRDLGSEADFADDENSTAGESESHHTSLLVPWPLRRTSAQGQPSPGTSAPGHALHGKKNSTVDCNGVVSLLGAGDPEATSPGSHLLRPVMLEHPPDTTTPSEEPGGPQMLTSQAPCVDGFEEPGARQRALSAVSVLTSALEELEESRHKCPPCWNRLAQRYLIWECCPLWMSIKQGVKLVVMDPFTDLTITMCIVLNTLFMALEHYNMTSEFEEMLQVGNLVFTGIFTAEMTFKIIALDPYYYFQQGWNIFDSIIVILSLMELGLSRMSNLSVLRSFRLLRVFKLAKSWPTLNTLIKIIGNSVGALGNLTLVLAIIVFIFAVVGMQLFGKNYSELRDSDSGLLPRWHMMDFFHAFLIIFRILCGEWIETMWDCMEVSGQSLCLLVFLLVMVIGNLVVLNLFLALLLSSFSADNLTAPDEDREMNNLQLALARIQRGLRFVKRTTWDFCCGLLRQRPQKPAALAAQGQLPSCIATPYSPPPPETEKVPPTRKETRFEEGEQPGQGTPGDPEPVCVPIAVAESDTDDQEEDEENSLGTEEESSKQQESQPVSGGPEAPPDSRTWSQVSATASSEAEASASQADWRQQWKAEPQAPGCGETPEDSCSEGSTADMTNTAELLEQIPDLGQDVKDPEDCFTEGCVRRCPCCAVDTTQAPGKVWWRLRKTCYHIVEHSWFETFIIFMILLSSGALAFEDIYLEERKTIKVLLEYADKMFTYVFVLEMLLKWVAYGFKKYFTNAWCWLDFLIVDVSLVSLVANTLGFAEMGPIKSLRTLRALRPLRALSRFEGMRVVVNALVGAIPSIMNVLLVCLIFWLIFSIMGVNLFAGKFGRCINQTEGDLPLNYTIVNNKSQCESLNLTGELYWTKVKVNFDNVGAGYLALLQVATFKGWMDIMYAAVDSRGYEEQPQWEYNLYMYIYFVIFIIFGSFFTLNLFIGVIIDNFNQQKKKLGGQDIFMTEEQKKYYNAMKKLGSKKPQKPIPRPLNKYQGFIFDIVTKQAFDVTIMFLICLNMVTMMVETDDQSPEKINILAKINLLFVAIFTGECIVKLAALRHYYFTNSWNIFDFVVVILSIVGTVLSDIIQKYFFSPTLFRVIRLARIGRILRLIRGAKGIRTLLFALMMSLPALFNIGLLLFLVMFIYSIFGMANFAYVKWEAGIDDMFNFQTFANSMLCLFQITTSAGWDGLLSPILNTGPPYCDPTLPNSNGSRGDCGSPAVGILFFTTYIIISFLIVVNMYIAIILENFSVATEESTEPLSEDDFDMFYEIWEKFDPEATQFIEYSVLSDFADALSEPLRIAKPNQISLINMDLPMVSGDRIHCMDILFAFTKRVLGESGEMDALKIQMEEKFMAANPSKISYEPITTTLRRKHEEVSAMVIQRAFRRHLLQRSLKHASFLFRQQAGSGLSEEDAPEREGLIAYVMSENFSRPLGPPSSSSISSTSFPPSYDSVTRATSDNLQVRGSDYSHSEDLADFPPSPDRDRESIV

- Kp at 0.25 h [1]: 3.1
- concentration at 0.5 h [2]: 18.3 ng/mL
- Kp at 0.25 h [3]: 3.9
- V1/2 [5]: -77 mV
- Kp at 0.5 h [6]: 3.6
- Cmax [7]: 389 ng/mL
- concentration at 0.5 h [8]: 59.3 ng/g
- concentration at 0.25 h [9]: 646 ng/g
- AUC(0-inf) [10]: 118 ng·h/mL
- concentration at 0.5 h [11]: 800 ng/g
- half-life [12]: 31.2 min
- T/C [15]: 0.03
- IC50 [16]: 120 nM
- Tmax [17]: 3 min
SMILES: COc1cccc(-c2cc(N3CCCc4ccccc4C3)nc(N)n2)c1
- Activity [4]: 18%
- T/C [13]: 0.06
- T/C [14]: 0.87
